Data taken from patent US6734177B2, “Certain salts of discodermolide acid, pharmaceutical compositions containing them and their use in treating tumors” (Novartis AG, priority 2001, dated 2004).

Legend:
Assay in all cases: Hollow fiber in vivo tumor cell cultivation model in athymic nude mice
Parameters in all cases: species or system human
[1] = test system: 1A9 ovarian carcinoma
Excerpt: (§1) Utilizing this model, one can measure the ability of test compounds to inhibit the growth of human tumor cells in hollow fibers growing subcutaneously (s.c.) in athymic nude mice. The histologic tumor types employed were MIP 101 colon carcinoma, HCT-116 colon carcinoma, 1A9PTX22 ovarian carcinoma, and 1A9 ovarian carcinoma.
(§2) The HCT 116 human colon tumor cell line was obtained from the American Type Culture Collection, Rockville, Md. The MIP 101 human colon tumor cell line was obtained from Dr. Robert Kramer (Bristol Meyers Squibb) and was previously described (Niles R M, Wilhelm S A, Steele G D JR, Burke B, Christensen T, Dexter D, O'Brien M J, Thomas P, Zamcheck N. Isolation and characterization of an undifferentiated human colon carcinoma cell line (MIP-101). Cancer Invest. 1987;5(6):545-52.). The 1A9 and the 1A9PTX22 ovarian tumor cell lines were obtained from Dr. Toto Fojo, Medicine Branch, Division of Clinical Sciences, National Cancer Institute, National Institutes of Health, Bethesda, Md. 20892. The 1A9 is a clone of the ovarian carcinoma cell line, A2780 (Balachandran R, ter Haar E, Welsh M J, Grant S G, Day B W. The potent microtubule-stabilizing agent (+)-discodermolide induces apoptosis in human breast carcinoma cells-preliminary comparisons to paclitaxel. Anti-Cancer Drugs 1998; 9:67-76. [Errata: Anti-Cancer Drugs 1998: 9:369-370]). The 1A9PTX22 subline was isolated as an individual clone from the 1A9 cell line in a single step selection by exposure to 5 ng/mL paclitaxel in the presence of 5 μg/mL of verapamil. […] Resistance to paclitaxel was maintained after two years of culturing in drug-free media, and was attributed to the Ala^364→Thr mutation in β-tubulin that was found in the 1A9PTX22 cell line. All cell lines were propagated and expanded in RPMI 1640 medium containing 10% heat-inactivated FBS (Life Technologies, Grand Island, N.Y.) in a tissue culture incubator (37° C., controlled, humidified atmosphere containing 5% CO2). Cell expansions were performed in T75 tissue culture flasks (Costar®, Corning, N.Y.). For hollow fiber preparations, cells were harvested at 70-90% confluency using 0.25% Trypsin-EDTA (Life Technologies, Grand Island, N.Y.).
(§3) PVDF hollow fibers (Spectrum, Gardena, Calif.) were soaked in 70% EtOH for 72 hours before use. After this step, all handling of fibers was done under a biological laminar flow hood using aseptic procedures. Individual fibers were flushed with 3 mL of ice-cold tissue culture media using a syringe equipped with a 20-gauge needle. Next, each fiber was filled with an appropriate cell suspension (1×10^6 cells/mL for the 1A9 and 1A9PTX22 cells, and 0.3×10^6 cells/mL for the HCT 116 and MIP 101 cells), and both ends of the fiber were sealed with a hot flat needle holder. The entire length of the fiber was then sealed into 1.5 cm microcapsules (further called “hollow fibers”), each containing approximately 15 μL of the appropriate cell suspension. After separation, individual hollow fibers were placed in 6 well plates (6 fibers in 5 mL media per well), and were incubated overnight at 37° C. in the tissue culture incubator.
(§4) Outbred athymic (nu/nu) female mice (“Chrls:Athymic Nude-nu”, Charles River Laboratories, Wilmington, Mass.) were anesthetized with ip injections of Ketamine/Xylazine (150 mg/kg, and 12 mg/kg body weight, respectively). For the subcutaneous implantation an 11-gauge trocar containing one or two hollow fibers was inserted through an incision made with scissors at the nape of the neck of an animal, and fibers were released by retracting the trocar while depressing the plunger. This procedure was repeated until all four hollow fibers were implanted. One wound clip was used to close the skin incision. After the surgery each animal received a single, subcutaneous injection of 0.4 mg/kg butorphenol to relieve any potential pain. Animals recovered from the anesthesia on a heating pad, before returning to their cages. […]

[2] = test system: 1A9PTX22 ovarian carcinoma; conditions: for Experiment #1 % T/C ± SEM / Experiment #2 % T/C ± SEM: 1A9PTX22 hollow fibers s.c., day 7, Paclitaxel 15 mg/kg i.v. daily for 5 days, Ex. 1 45 mg/kg i.v. once; for Average % T/C: 1A9PTX22 hollow fibers, average of experiments #1 and #2
Excerpt: as §1, §2, §3, §4

[3] = test system: HCT-116 colon carcinoma; conditions: for Experiment #1 % T/C ± SEM / Experiment #2 % T/C ± SEM: HCT 116 hollow fibers s.c., day 7, Paclitaxel 15 mg/kg i.v. daily for 5 days, Ex. 1 45 mg/kg i.v. once; for Average % T/C: HCT 116 hollow fibers, average of experiments #1 and #2
Excerpt: as §1, §2, §3, §4

[4] = test system: MIP 101 colon carcinoma; conditions: for Experiment #1 % T/C ± SEM / Experiment #2 % T/C ± SEM: MIP 101 hollow fibers s.c., day 7, Paclitaxel 15 mg/kg i.v. daily for 5 days, Ex. 1 45 mg/kg i.v. once; for Average % T/C: MIP 101 hollow fibers, average of experiments #1 and #2
Excerpt: as §1, §2, §3, §4

[5] = 1A9 hollow fibers s.c., day 7, Paclitaxel 15 mg/kg i.v. daily for 5 days, Ex. 1 45 mg/kg i.v. once
[6] = 1A9 hollow fibers, average of experiments #1 and #2

Row | SMILES | Experiment #2 % T/C ± SEM ([1]; 1A9 hollow fibers s.c., day 7, Ex. 1 45 mg/kg i.v. once) [%] | Experiment #1 % T/C ± SEM [1, 5] [%] | Average % T/C [1, 6] [%] | Experiment #1 % T/C ± SEM [2] [%] | Experiment #2 % T/C ± SEM [2] [%] | Average % T/C [2] [%] | Experiment #1 % T/C ± SEM [3] [%] | Experiment #2 % T/C ± SEM [3] [%] | Average % T/C [3] [%] | Experiment #1 % T/C ± SEM [4] [%] | Experiment #2 % T/C ± SEM [4] [%] | Average % T/C [4] [%] | Experiment #2 regression (Reg.) ([1]; 1A9 hollow fibers s.c., day 7, Paclitaxel 15 mg/kg i.v. daily for 5 days, regression = (1−Mean T/Mean T0)×100%) [% Reg.**] | Average regression (Reg.) [1, 6] [% Reg.]
1 | C=C/C=C\[C@H](C)[C@H](OC(N)=O)[C@@H](C)[C@@H](O)[C@@H](C)C/C(C)=C\[C@H](C)[C@@H](O)[C@@H](C)/C=C\[C@@H](O)C[C@H](O)[C@H](C)[C@H](O)[C@@H](C)C(=O)[O-].[Na+] [Ex. 1, (2R,3S,4S,5S,7S,8Z,10S,11S,12S,13Z,16S,17S,18S,19S,20S,21Z)-19-[(aminocarbonyl)oxy]-3,5,7,11,17-pentahydroxy-2,4,10,12,14,16,18,20-octamethyl-8,13,21,23-tetracosatetraenoic acid, sodium salt] | 23 ± 8 | 14 ± 4 | 19 | 6 ± 2 | 16 ± 7 | 11 | 15 ± 4 | 10 ± 3 | 13 | 50 ± 9 | 90 ± 9 | 70 | – | –
2 | CC(=O)O[C@H]1C(=O)[C@@]2(C)[C@H]([C@H](OC(=O)c3ccccc3)[C@]3(O)C[C@H](OC(=O)[C@H](O)[C@@H](NC(=O)c4ccccc4)c4ccccc4)C(C)=C1C3(C)C)[C@]1(OC(C)=O)CO[C@@H]1C[C@@H]2O [paclitaxel] | – | 1 ± 3 | – | 109 ± 16 | 84 ± 8 | 97 | 2 ± 1 | 1 ± 2 | 1 | 113 ± 10 | 112 ± 11 | 113 | 53 | 26
